Reference: US20170029531A1, “INHIBITION OF LACTATE DEHYDROGENASE 5 (LDH-5) BINDING, INCORPORATION, INTERNALIZATION AND/OR ENDOCYTOSIS TO IMMUNE CELLS” (Seattle Children's Hospital (dba Seattle Children's …, priority 2014, published 2017)

What was measured:
T cells and NK cells = assay: Internalization of LDH-A488 by T cells and NK cells of human PBMC; format: cell-based; conditions: 10 ug/mL LDH-A488, 30 min, 37° C., IL-2 cultured PBMC
Method: FIG. 33. Human PBMC were isolated from healthy human blood via Ficoll gradient. PBMC were cultured for 24 h in RPMI+10% FBS supplemented with 1000 U/mL IL-2. Experimental wells were pulsed with 10 ug/mL LDH-A488 for 30 min (control wells received no LDH) at 37° C. Cells were treated for 2 min with 0.5M acetic acid+150 mM NaCl (pH 2.5), followed by 4 subsequent washes in RPMI+10% FBS. Cells were stained with antibodies directed against CD4, CD8, CD28, and CD95 to delineate T cell subsets (CD28+CD95−, Naïve, Na; CD28+CD95+, central memory, CM; CD28−CD95+, effector memory, EM) or against CD3, CD56, and CD16 to delineate NK cell subsets (CD3-CD56hiCD16−; CD3−CD56dimCD16−; CD3−CD56dimCD16+). Frequency and MFI of A488 was corrected against control (no LDH pulse). Shown are 10 data points: 2 patients on 2 different days (in duplicate), and 1 patient on one day in duplicate.
Human PBMC were isolated from healthy human blood via Ficoll gradient. PBMC were cultured for 24 h in RPMI+10% FBS supplemented with 1000 U/mL IL-2. Experimental wells were pulsed with 10 ug/mL LDH-A488 for 30 min (control wells received no LDH) at 37° C. Cells were treated for 2 min with 0.5M acetic acid+150 mM NaCl (pH 2.5), followed by 4 subsequent washes in RPMI+10% FBS. […]

primary human NK cells = assay: NKG2D expression and CD107a degranulation of primary human NK cells after incubation with LDH or lactate; format: cell-based; conditions: LDH 50 ug/mL or lactate 20 mM; 12 hour (NKG2D, NKp46) or 6 hour after IL-2 (CD107a)
Text: FIG. 2. Biochemical purification of tumor-derived Lactate Dehydrogenase, expression in glioma cell lines and verification of LDH-mediated induction of NKG2D ligands on monocytes. (Panel A) Protein purification strategy. […] of U87 glioblastoma cell line supernatant were subjected to ammonium sulfate precipitation. Active fractions were passed over a phenyl Sepharose column and active fractions were then subjected to size exclusion (Superdex 200), followed by ion exchange (MonoS) before Mass Spectroscopy (MS) analysis. (Panel B) Following separation by chromatography, fractions were dialyzed into PBS and cultured with MHD (healthy monocytes) for 18 hours. Whole cell mRNA was reverse transcribed, and induction of MICB and ULBP-1 was analyzed relative to media alone controls. […] (Panel C) mRNA isolated from PBMC of healthy donors, 293T cells (as negative controls), and U87, U251, and SF767 glioma cell lines were analyzed for expression of LDHA and LDHB by qPCR. (Panel D) A 1:10 dilution of fresh, unfrozen glioblastoma cell line supernatants was analyzed for total LDH enzymatic activity and expressed as OD 495 nm. […] Eighteen hours later, mRNA was isolated and analyzed for MICA, MICB, and ULBP-1 by qPCR. […] Eighteen hours later, mRNA was isolated and analyzed for MICA, MICB and ULBP-1 by qPCR. […] Eighteen hours later, MICB (black bars) and ULBP-1 (gray bars) were measured by qPCR. […]

[1] = system: monocytes from healthy donors; assay: NKG2D ligand (MICA, MICB, ULBP-1) mRNA induction in monocytes from healthy donors (MHD), qPCR; format: cell-based, human
Text: FIG. 2. Biochemical purification of tumor-derived Lactate Dehydrogenase, expression in glioma cell lines and verification of LDH-mediated induction of NKG2D ligands on monocytes. (Panel A) Protein purification strategy. […] of U87 glioblastoma cell line supernatant were subjected to ammonium sulfate precipitation. Active fractions were passed over a phenyl Sepharose column and active fractions were then subjected to size exclusion (Superdex 200), followed by ion exchange (MonoS) before Mass Spectroscopy (MS) analysis. (Panel B) Following separation by chromatography, fractions were dialyzed into PBS and cultured with MHD (healthy monocytes) for 18 hours. Whole cell mRNA was reverse transcribed, and induction of MICB and ULBP-1 was analyzed relative to media alone controls. Western blot analysis using a monoclonal antibody to LDH-5 (ab101562) was performed on […] of total protein to confirm the presence of LDH-5 in the active fractions. (Panel C) mRNA isolated from PBMC of healthy donors, 293T cells (as negative controls), and U87, U251, and SF767 glioma cell lines were analyzed for expression of LDHA and LDHB by qPCR. (Panel D) A 1:10 dilution of fresh, unfrozen glioblastoma cell line supernatants was analyzed for total LDH enzymatic activity and expressed as OD 495 nm. (Panel E) Validation of LDH induction of NKG2D ligands in monocytes. Six hundred twenty five U/L of purified, native LDH-5, fresh U87 supernatant, or fresh U87 supernatant in the presence of 100 mM sodium oxamate (NaOx) were cultured with MHD. Eighteen hours later, mRNA was isolated and analyzed for MICA, MICB, and ULBP-1 by qPCR. Values represent induction relative to MHD cultured in media alone. (Panel F) Fresh U87 supernatant, 625 U/L of purified, native LDH-5, LDH-5+0.5 mM Pyruvate (Pyr), or LDH-5+0.5 mM pyruvate and 100 mM NaOx were cultured with MHD. Eighteen hours later, mRNA was isolated and analyzed for MICA, MICB and ULBP-1 by qPCR. Values represent induction relative to MHD cultured in media alone. (Panel G) MHD were cultured with native LDH-5 isolated from liver cells. Eighteen hours later, MICB (black bars) and ULBP-1 (gray bars) were measured by qPCR. (Panel H) Expression of NKG2D and NKp46 on primary human NK cells following a 12 hour incubation with LDH (50 ug/mL) or lactate (20 mM). Cells were surface stained with antibodies directed against CD3, CD56, NKG2D, and NKp46 and analyzed by flow cytometry. The expression level of NKG2D and NKp46 are plotted against CD56. (Panel I) Expression of CD107a on primary human NK cells following IL-2 (1000 U/ml) activation and a 6 hour incubation with LDH (50 ug/mL) or lactate (20 mM). Cells were surface stained with antibodies directed against CD3, CD56, and CD107a and analyzed by flow cytometry. Representative data are shown in the top panels, a summary of percent CD107a+NK cells is shown below. (Panel J) 293T cells were transiently transfected with a pcDNA3.1 (−) vector encoding either LDHA or LDHB, or both constructs. Supernatant was then cultured with CD14-positively selected MHD. Eighteen hours later, MICB and ULBP-1 were measured by qPCR. Values represent induction relative to monocytes cultured in media alone. *P<0.05, **P<0.01.
FIG. 21. Purified native LDH5 or LDH1 was cultured with monocytes from healthy donors. Eighteen hours later, MICB and ULBP-1 were measured by qPCR. Values represent induction relative to monocytes cultured in medium alone. […]

[2] = LDH activity after freeze/thaw (colorimetric LDH activity assay); format: physicochemical; conditions: FIG. 12
Method: Supernatants and patient sera were analyzed for LDH enzymatic activity using a commercially available colorimetric assay according to the manufacturer's instructions (Sigma-Aldrich). Standard curves were generated using purified native LDH5.

[3] = 156 U/L enzymatically active LDH5 from human liver, monocytes

With “LDH5: purified native lactate dehydrogenase isoenzyme 5, alpha only tetramer; fluorescently labeled in uptake tests” as the substance, how does the “Internalization of LDH5 by T cells and NK cells” value (T cells and NK cells) read?
The value was “internalize”.

And the “NK cell NKG2D expression or degranulation” value (primary human NK cells)?
The value was “neither lactate nor LDH-5 alone directly impacted”.

And the “MICB gene expression compared with medium alone” value [1, 3]?
The value was 7.85 fold induction.

What about the “ULBP-1 gene expression compared with medium alone” value [1, 3] of the same substance?
The value was 13.26 fold induction.

And the “Lowest concentration of purified native LDH5 that induced transcription of MICB and ULBP-1” value ([1]; monocytes from healthy donors, 18 h, qPCR, FIG. 2 panel G)?
Its value is 156 U/L.

What about the “LDH5 concentration that induced a maximal increase in NKG2D ligand transcription” value ([1]; monocytes, concentrations above this induced less transcription) of the same substance?
Its value is 625 U/L.

What about the “LDH-5 activity following freeze/thaw” value [2] of the same substance?
The value was “significantly reduced”.
